Source: PMC10033419, “Blocking NS3–NS4B interaction inhibits dengue virus in non-human primates” (Nature, 2023)
Values joined by “and” are separate entries in the source; they are usually repeats but may differ in a detail not shown here. Equal entries are not always repeated.

Assays:
[1] = ATPLite cell viability assay; format: cell-based, African green monkey; conditions: African green monkey, Vero cells
Protocol: (§1) In parallel, the toxicity was measured using an ATPLite cell viability luminescence assay (PerkinElmer). The assays were performed in three different cell types (Vero, Huh-7 and THP-1/DC-SIGN) as described in ref. [3] to exclude cell-specific activity of the compound.

Vero cells = assay: ATPLite cell viability assay; format: cell-based, African green monkey; conditions: individual experiments, listed as 64281802-AAA
Protocol: as §1

hCMV AD169 = assay: microbe, parasite or virus in culture; format: cell-based; conditions: Human betaherpesvirus 5, AD169, MRC5; MRC-5
in vivo = conditions: rhesus monkey, iv, 1 mg/kg
Protocol: After single intravenous administration, the monkey blood was collected at the BPRC just before dosing, and at 0.05, 0.15, 0.5, 4, 6, 8, 24, 48 and 264 h after dosing. After oral administration, the monkey blood was collected at the BPRC on the first and last day of dosing just before dosing and at 1, 2, 4, 6, 8 and 24 h after dosing that day. Moreover, blood samples were taken on days 3, 6 and 7 after infection just before dosing. For the study at WRAIR, the monkey blood was collected just before dosing and at 1, 4, 8 and 24 h after the first day of dosing and before dosing and at 2, 5, 8, 24 and 96 h after the last day of dosing. Furthermore, blood samples were taken on days 0, 2, 5 and 8 after infection just before dosing. […] A volume of 1 ml blood was collected into a blood collection tube coated with EDTA as anti-coagulant. Within 1 h after collection, the blood samples were centrifuged in a precooled centrifuge for 10 min at 1,500g (4 °C). Within 2 h after blood collection, the plasma samples were stored at −80 °C until shipment. Individual plasma concentration–time profiles were processed for a non-compartmental pharmacokinetics analysis using Phoenix WinNonlin v.6.3. (Certara).

COc1cc(N[C@H](C(=O)c2c[nH]c3ccc(OC(F)(F)F)cc23)c2ccc(Cl)cc2OC)cc(S(C)(=O)=O)c1 [JNJ-1802]
CC50 at 4 d ([1]; TOX d4 preseeding, individual experiments): 3.04 µM | CC50 ([1]; Vero): 2.61 ± 0.47 µM | CC50 ([1]; Vero with 50% HS): > 1.5 µM | CC50 (Vero cells; Vero cells in presence of 50% HS): > 2.5 µM | CC50 (Vero cells; Vero cells, TOX d4 preseeding): 3.08 µM and 2.4 µM and 2.78 µM and 3.52 µM and 2.2 µM and 2.32 µM and 2.27 µM and 2.31 µM and 2.18 µM | EC50 (hCMV AD169): 9 µM | AUC(0-inf) (in vivo; female, in vivo): 11.8 µg·h/mL | AUC(0-t) (in vivo; female, plasma): 6.73 µg·h/mL | clearance (in vivo; female, plasma): 0.1 ± 0.0444 L/h/kg | half-life (in vivo; female, plasma): 50 ± 12 h | Vdssp (in vivo; in vivo): 3.93 ± 1.18 L/kg
